{"source": "paper PMC10547880", "about": "“Synthesis and biological evaluation of novel 1,2,3-triazole hybrids of cabotegravir: identification of potent antitumor activity against lung cancer” (Frontiers in Pharmacology, 2023)", "assay_type_in_all_cases": "cell-based, Human", "key": {"H460 cells [1]": {"tested_on": "H460 cells", "assay": "Live/dead cell staining (Calcein-AM/PI), H460", "details": "H460, 5, 10, 20 μM, 24 h", "experimental": "Cells with a density of 5 × 10^3 cells per well were seeded in a 96-well plate. After overnight incubation, cells were treated with different concentrations (0, 5 μM, 10 μM, 20 μM) of compounds for 24 h. The LIVE/DEAD Assay Kit was used to dye cells, and cells were observed and photographed under a fluorescent microscope. Live and Dead cell numbers were counted and the ratio of dead to living cells were calculated. Values were expressed as Mean ± SEM, p < 0.05 was considered statistically significant. Data were performed using Graph Prim 7.0. To assess the anti-proliferative effects of compound 5i, live/dead cell staining was performed using Calcein Acetoxymethyl Ester (Calcein-AM) and Propidium Iodide (PI) dyes ([Xie et al., 2023]). Calcein-AM highlights live cells through green fluorescence emission, while PI identifies dead cells with damaged membrane integrity, producing red fluorescence. H460 and H1299 cells were treated with different concentrations (0, 5, 10 and 20 μM) of compound 5i for 24 h. After 24 h treatment, cells were stained with Calcein-AM and PI, diluted in cultured medium, and incubated for an hour in dark. Then the fluorescence was detected and photographed using a fluorescent microscope. […] In addition, we also performed plate clone formation assay ([Xu et al., 2018]) to further investigate the anti-proliferation ability of compound 5i. […]"}, "H460 cells [2]": {"tested_on": "H460 cells", "assay": "Plate clone formation assay, H460", "details": "H460, 2-32 μM, particularly 16 μM and 32 μM", "experimental": "(§1) Cells with the density of 500 cells per well were seeded in a 6-well plate. Different concentrations (0, 2 μM, 4 μM, 8 μM, 16 μM and 32 μM) of compounds were added to cells and maintained for a 72- hour duration. And cells were cultured until the monoclonal appeared. Afterward, cells were fixed with 4% paraformaldehyde and stained by Giemsa dye. The plate clone numbers were photographed and counted using a microscope. Values were expressed as Mean ± SEM, p < 0.05 was considered statistically significant. Data were performed using Graph Prim 7.0.\n(§2) To assess the anti-proliferative effects of compound 5i, live/dead cell staining was performed using Calcein Acetoxymethyl Ester (Calcein-AM) and Propidium Iodide (PI) dyes ([Xie et al., 2023]). Calcein-AM highlights live cells through green fluorescence emission, while PI identifies dead cells with damaged membrane integrity, producing red fluorescence. H460 and H1299 cells were treated with different concentrations (0, 5, 10 and 20 μM) of compound 5i for 24 h. After 24 h treatment, cells were stained with Calcein-AM and PI, diluted in cultured medium, and incubated for an hour in dark. Then the fluorescence was detected and photographed using a fluorescent microscope. […] In addition, we also performed plate clone formation assay ([Xu et al., 2018]) to further investigate the anti-proliferation ability of compound 5i. […]"}, "H1299 cells": {"tested_on": "H1299 cells", "assay": "Plate clone formation assay, H1299", "details": "H1299, 2-32 μM", "experimental": "as §1, §2"}, "H460 cells [3]": {"tested_on": "H460 cells", "assay": "Cellular ROS measurement (DCFH-DA), H460", "details": "H460, 5, 10 or 20 μM, 24 h", "experimental": "Cells with a density of 5 × 10^3 cells/well were cultured in a 96-well plate. The cells were treated with different concentrations (0, 5, 10, 20 μM) of compounds for 24 h. Then the medium was replaced with 10 μM DCFH-DA dissolved in culture medium and incubated for 30min at 37°C in dark. The fluorescent cells were observed and photographed using a fluorescent microscope.\nReactive oxygen species (ROS) levels were determined quantitatively using the probe 2′-7′-dichlorodihydrofluorescin diacetate (H2DCFDA) ([Kim and Xue, 2020]). Under normal condition, ROS participated in mitochondrial electron transport, signal transduction, gene expression, and enzyme reactions. But excess or deficiency of ROS levels can result in the development of diseases including cancers, diabetes, atherosclerosis, neurodegenerative diseases and others ([Wang et al., 2023]). ROS induction is associated with mitochondrial membrane damage, cell apoptosis, and ultimately cell death ([Dixon and Stockwell, 2014]). To evaluate the effect of compound 5i on ROS generation, H460 cells were treated with 5 μM, 10 μM or 20 μM of compound 5i for 24 h. […] DCFH-DA has no fluorescence and it can pass through cell membrane freely. […] This phenomenon can be attributed to the reduction in the number of live cells; however, the observed fluorescence appeared more intense (Figure 5)."}, "H460 cells [4]": {"tested_on": "H460 cells", "assay": "Western blot of protein expression, H460", "details": "H460, 2, 4, 8 μM, 72 h", "experimental": "Western blot was used to analyze protein expressions. Cells were cultured in 12-well plates and treated with different concentrations (0, 2, 4, 8 μM) of compounds for 72 h. Cell proteins were extracted using RIPA buffer with protease/phosphatase inhibitor cocktail (CST). 10%–15% sodium dodecyl sulfate polyacrylamide gel electrophoresis was used to separate proteins and nitrocellulose membranes (Millipore) was used to collected proteins. Antibodies used in western bolt were LC3 (3868s, CST), caspase 3 (9662s, CST), cyclin D (2922s, CST), cyclin E (20808s, CST), β-Catenin (9562s, CST), γH2AX (9718s, CST), PARP (46D11, CST), and β-actin (4967s, CST). Values were expressed as Mean ± SEM, p < 0.05 was considered statistically significant. Data were performed using Graph Prim 7.0.\nWestern blot analysis was performed to assess the protein expressions involved in cell growth and cell death processes. H460 and H1299 cells were treated with different concentrations of compound 5i, and whole cell proteins were collected for analysis. […] Autophagy has both tumor suppression and growth promotion effects in cancers, depending on the cellular context and cancer stage. On the one hand, autophagy inhibits cancer development via eliminating dysfunctional proteins and damaged mitochondria. On the other hand, autophagy can promote tumor growth by providing recycled metabolites to support cancer cell survival and growth ([Wang et al., 2023]). […] But in H1299 cells, compound 5i exerted its anticancer ability by suppressing cell division and proliferation."}}, "note": "Entries after “also recorded” stand apart in the source; their conditions may differ."}
{"molecule": "COc1c2n(cc(C(=O)Nc3cccc(-c4cn(-c5ccccc5OC(F)(F)F)nn4)c3)c1=O)CC1OCC(C)N1C2=O", "note": "(centres unmarked) [Compound 5i]", "values": [{"measurement": "live and dead cell numbers", "setting": "H460 cells [1]", "result": "significantly decreased the number of live cells and increased the number of dead cells"}, {"measurement": "number of cell clones", "setting": "H460 cells [2]", "result": "decreased"}, {"measurement": "number of cell clones", "setting": "H1299 cells", "result": "reduction in the number of cell clones"}, {"measurement": "ROS generation", "setting": "H460 cells [3]", "result": "significant augmentation in ROS generation"}, {"measurement": "Cyclin D expression", "setting": "H460 cells [4]", "result": "no significant differences"}, {"measurement": "Cyclin E expression", "setting": "H460 cells [4]", "result": "no significant differences"}, {"measurement": "LC3 expression", "setting": "H460 cells [4]", "result": "pronounced elevation; also recorded: significant increase"}, {"measurement": "PARP expression", "setting": "H460 cells [4]", "result": "no significant differences"}, {"measurement": "caspase3 expression", "setting": "H460 cells [4]", "result": "no significant differences"}, {"measurement": "β-catenin expression", "setting": "H460 cells [4]", "result": "no significant differences"}, {"measurement": "γ-H2AX expression", "setting": "H460 cells [4]", "result": "no significant differences"}]}
